Data: patent US20140303092A1 (CHIMERIX, INC., priority 2011, published 2014)
“And” between values parts separate entries of the source, which are not always exact repeats. Equal values may be shown once.

System: CMV
Assay: Study HDP-CDV-201: prevention or control of CMV infection in R+ HSCT recipients (efficacy)
Type: in vivo, human (adult allogeneic HSCT recipients)
Description: The clinical study of the current invention (HDP-CDV-201) was a 9-11 week randomized, placebo-controlled, double-blind, dose-escalation study (40 mg weekly [QW], 100 mg QW, 200 mg QW, 200 mg twice-weekly [BIW], and 100 mg BIW) of HDP-CDV for the prevention of CMV infection post-HCT. Treatment was initiated at the time of engraftment and continued until Week 13 post-HCT. HDP-CDV, at various doses, was active and well tolerated in the prevention CMV infection or disease.
Clinical Studies of HDP-CDV were performed and described in detail in the following Examples. For example, HDP-CDV-201 is a placebo-controlled, dose-escalating trial in HSCT CMV (R+) recipients, evaluating the ability of HDP-CDV to prevent or control CMV infection was carried out. Five cohorts were established in which participants or subjects received either placebo or the HDP-CDV orally, in doses ranging from 40 mg weekly (QW) to 200 mg twice weekly (BIW). Subjects who were post-HSCT were enrolled at the time of engraftment and randomized to HDP-CDV or placebo (3 to 1 ratio) and received blinded therapy until approximately 100 day post-transplantation. HDP-CDV doses were 40 mg QW, 100 mg QW, 200 mg QW, 200 mg BIW and 100 mg BIW. Escalation to the next dose was decided by the data monitoring committee after review of the safety data from the previous Cohort. Subjects who developed CMV disease or CMV infection requiring pre-emptive therapy with local standard of care were discontinued from blinded therapy and followed for 4 weeks. Subjects who completed treatment with blinded therapy were followed for 8 weeks post-therapy.
The primary endpoint was defined as the incidence of CMV disease at any time during treatment or CMV DNAemia≧200 copies/mL at the end of treatment. All subjects who received at least one dose of drug/placebo and had at least one efficacy evaluation post baseline were included in the primary analysis, regardless of their CMV DNAemia status (negative or positive) at baseline (mITT population). Results for the pooled HDP-CDV Cohorts and for each Cohort separately were analyzed versus that for pooled placebo.
The primary efficacy measure for this study was treatment failure, defined as the occurrence of CMV infection, defined as CMV DNAemia>200 copies/mL at the End of Treatment or diagnosis of CMV disease at any time during the treatment period. For the analysis, the following definitions apply:
For subjects who completed the treatment phase of the study, the End of Treatment was defined as the latest assessment from date of the last dose of study drug and up to 7 days for QW dosing, or the date of the last dose of study drug and up to 4 days for BIW dosing. For subjects who discontinued during the treatment phase of the study, the End of Treatment was defined as the date of the last dose of study drug.
The time to event was defined as the period between FDD and date of first occurrence of the event of interest (inclusive). The events included onset of CMV DNAemia, onset of CMV disease, and discontinuation because of excluded anti-CMV medications. Time to event/onset was derived as (the event/onset date—FDD)+1.
As detailed in the Statistical Analysis Plan, a modified CMV stratum was defined prior to conducting the statistical analysis based upon polymerase chain reaction (PCR) results from the central laboratory. If any positive CMV DNA value in plasma was collected before the first dose of study drug (including Screening, Pre-dose, (combined Screening/Pre-dose), CMV for stratification, and FDD), then the subject was placed into the modified CMV positive (≧100 copies/mL) stratum, otherwise the subject was in the modified CMV negative stratum. […]

[1] = 200 mg QW, modified CMV negative stratum
[2] = 200 mg QW, whole study period, CMV DNA negative at baseline
[3] = All HDP-CDV, CMV modified strata: negative
[4] = All HDP-CDV, CMV modified strata: positive

## CCCCCCCCCCCCCCCCOCCCOP(=O)(O)COC(CO)Cn1ccc(N)nc1=O (stereo not drawn) [HDP-CDV]
200 mg QW, mITT
  Subjects Receiving Antiviral Therapy and/or had CMV disease: 7 (17.9%) subjects (%)
  Subjects without a CMV event: 32 (82.1%) subjects (%)
  Time to Antiviral Therapy, Median: 40.0 days
200 mg QW, mITT, missing=infection
  Rate of CMV Disease or End of Treatment CMV Infection (≧200 copies/ml): 31% and 30.8%
200 mg QW, mITT, post hoc
  Rate of CMV DNAemia ≧1000 copies/mL during the treatment period: 18% and 17.9%
200 mg QW, mITT, censored values not included
  Time to Antiviral Therapy, Mean: 38.1 days
[1]
  % CMV Event Rate: Incidence of CMV DNAemia >100 copies/mL During Treatment (Fisher analysis, ref 14.3.3.2.1): 7 (24.1%) subjects (%)
  % CMV Event Rate: Incidence of CMV DNAemia ≧1,000 copies/mL at any time during treatment: 2 (6.9%) subjects (%)
  Combined CMV event rate (CMV disease, viremia requiring treatment, viremia ≧1000 copies/mL): 13.8%
  Subjects Who Had CMV-related Event (CMV disease, CMV DNAemia ≧1,000 c/mL or initiation of anti-CMV treatment): 4 (13.8%) subjects (%)
  Subjects without a CMV-related event: 25 (86.2%) subjects (%)
200 mg QW, plasma CMV DNA negative at baseline, mITT
  Developed CMV DNAemia (≧100 copies/mL) during the treatment period: 7 (23.3%) N(%)
200 mg QW, treatment period, CMV DNA negative at baseline
  Time to CMV DNAemia (≧100 copies/mL), Median: 15.0 days
200 mg QW, treatment period, CMV DNA negative at baseline, censored values not included
  Time to CMV DNAemia (≧100 copies/mL), Mean: 22.6 days
[2]
  Number of Subjects who had CMV DNAemia (≧100 copies/mL) by the end of study: 11
  Time to CMV DNAemia (≧100 copies/mL), Mean: 36.3 days
  Time to CMV DNAemia (≧100 copies/mL), Median: 36.0 days
8 weeks follow-up
  subjects with emergence of viremia between end of treatment and end of treatment-free follow-up: less than 10%
All HDP-CDV (N = 133), CMV modified strata: negative
  % CMV Event Rate, primary: CMV DNAemia >200 copies/mL at end of treatment OR CMV disease during treatment: 21 (15.8%) subjects (%)
All HDP-CDV (N = 162), aGVHD strata: negative
  % CMV Event Rate, primary: CMV DNAemia >200 copies/mL at end of treatment OR CMV disease during treatment: 41 (25.3%) subjects (%)
All HDP-CDV (N = 171), mITT
  % CMV Event Rate, primary: CMV DNAemia >200 copies/mL at end of treatment OR CMV disease during treatment: 43 (25.1%) subjects (%)
[3]
  Difference (HDP-CDV minus placebo) in infection rate: −14.0%
  Difference (HDP-CDV minus placebo) in rate of CMV DNAemia ≧1,000 copies/ml: −25.9%
  Rate of CMV DNAemia ≧1,000 copies/ml during the treatment period: 6.0%
  Rate of CMV Disease or End of Treatment CMV Infection: 15.8%
[4]
  Difference (HDP-CDV minus placebo) in rate of CMV DNAemia ≧1,000 copies/mL: −28.1%
  Rate of CMV DNAemia ≧1,000 copies/mL during the treatment period: 55.3%
All HDP-CDV, aGVHD randomization strata: negative
  Rate of CMV Disease or End of Treatment CMV Infection: 25.3%
All HDP-CDV, aGVHD strata: negative
  Difference (HDP-CDV minus placebo) in infection rate: −6.8%
All HDP-CDV, mITT
  Difference (HDP-CDV minus placebo) in rate of CMV DNAemia ≧1000 copies/mL: −25.4%
  Difference (HDP-CDV minus placebo) in rate of CMV disease or end of treatment CMV infection: −12.1%
All HDP-CDV, mITT, post hoc
  Rate of CMV DNAemia ≧1000 copies/mL during the treatment period: 17.0%
All HDP-CDV, modified CMV negative stratum
  % CMV Event Rate: Incidence of CMV DNAemia ≧1,000 copies/mL at any time during treatment: 8 (6.0%) subjects (%)
All cohorts combined, aGVHD positive strata (2 of 9)
  CMV disease/infection rate (primary endpoint): 22.2%
Cohorts 100 mg QW, 200 mg QW and 100 mg BIW
  CMV DNAemia rate over whole study period: ~35%
Combined 100 mg QW, 200 mg BIW, 100 mg BIW (N = 86), CMV modified strata: negative
  % CMV Event Rate, primary: CMV DNAemia >200 copies/mL at end of treatment OR CMV disease during treatment: 8 (9.3%) subjects (%)
Exploratory analysis, cohorts that met endpoint (200 mg QW, 200 mg BIW, 100 mg BIW combined), mITT
  Rate of CMV DNAemia ≧1000 copies/mL during the treatment period: 11% and 10.9%
Exploratory analysis, cohorts that met endpoint, mITT
  Difference (HDP-CDV minus placebo) in rate of CMV DNAemia ≧1000 copies/mL: −23.2%
Higher doses (≧200 mg QW)
  Incidence of composite endpoint (initiation of anti-CMV therapy or CMV disease or CMV DNAemia >1,000 copies/mL): less than 15%
Pooled HDP-CDV, mITT
  Incidence of CMV disease or initiation of anti-CMV preemptive therapy: 22% and 21.6%
Across doses of 100 mg QW and higher
  overall rates of CMV DNAemia detectable at any time during treatment: 17.4 to 23.8%
Doses of 100 mg QW or higher (4/146)
  subjects who developed CMV disease: 2.7%
Doses of 200 mg per week or higher (1/119)
  subjects who developed CMV disease: 0.8%
Doses ≧100 mg QW combined, aGVHD positive strata (1 out of 7)
  CMV disease/infection rate (primary endpoint): 14.3%
Pooled 100 mg QW, 200 mg BIW, 100 mg BIW, CMV negative stratum (8 of 86)
  failure rate, exploratory endpoint: 9%
